The results in this text go back to US20230190852A1, “COMPOSITIONS AND METHODS FOR JOINT HEALTH” (Unigen, Inc., priority 2013, published 2023).

For test [1], the system named is Rabbit cartilage explants. In words: Ex vivo glycosaminoglycans (GAG) release assay. Format: cell-based. The following applies: for activity at 6.25 µg/mL / activity at 12.5 µg/mL / activity at 25 µg/mL / activity at 50 µg/mL / activity at 100 µg/mL: Oryctolagus cuniculus, 24 h; for activity at 6.25 µg/mL: 6.25 μg/ml; for activity at 12.5 µg/mL: 12.5 μg/ml; for activity at 25 µg/mL: 25 μg/ml; for activity at 50 µg/mL: 50 μg/ml; for activity at 100 µg/mL: 100 μg/ml; for protective effect on rhIL-1α-mediated PG degradation / GAG release: rhIL-1α 5 ng/ml. On the procedure:
Articular cartilage from hock joints of rabbits (2.5 kg body weight) was removed immediately after each animal was sacrificed and articular cartilage explants were obtained by following the method described by Sandy et al. (Biochem. Biophy Acta 543:36, 1978). Briefly, after the articular surfaces were surgically exposed under sterile conditions, approximately 200-220 mg articular surfaces per joint were dissected and submerged into complete medium (DMEM, supplemented with heat inactivated 5% FBS; penicillin 100 U/ml; streptomycin 100 ug/ml). They were then rinsed several times with the complete medium and incubated for 1 to 2 days at 37° C. in a humidified 5% CO2/95% air incubator for stabilization. The complete medium was replaced with a basal medium (DMEM, supplemented with heat-inactivated 1% FBS, 10 mM HEPES, and penicillin 100 U/ml streptomycin 100 μg/ml). Approximately 30 mg cartilage pieces (2×3×0.35 mm/piece) were placed in 24-well plates and treated with given concentrations of test agents. After pretreatment for 1 h, 5 ng/ml of rhIL-1α was added to the culture medium and further incubated at 37° C. in a humidified 5% CO2/95% air incubator. The culture medium was collected 24 h later and stored at −20° C. until assay.
The amount of sulphated GAGs (e.g., released from proteoglycans) in the medium at the end of the reaction reflects the amount of articular cartilage degradation, which was determined using the commercially available 1,9-dimethy-methylene blue method according to the instructions of the manufacturer (Blyscan™ assay, Accurate Chemical and Scientific Corp., Westbury, N.Y.).

The next test deals with Lewis rats. In words: Carrageenan-induced rat paw edema model (paw edema and pain sensitivity). The following applies: for Pain sensitivity (Analgesia), percent change vs. vehicle, 1 hr / Paw Edema (Inflammation), percent change vs. vehicle, 1 hr: 1 hr after treatment; for Pain sensitivity (Analgesia), percent change vs. vehicle, 3 hr / Paw Edema (Inflammation), percent change vs. vehicle, 3 hr: 3 hr after treatment; for Pain sensitivity (Analgesia), percent change vs. vehicle, 5 hr / Paw Edema (Inflammation), percent change vs. vehicle, 5 hr: 5 hr after treatment; for analgesic and anti-inflammatory activity: oral, rosmarinic acid 200 mg/kg, eriocitrin 100 mg/kg, NAG 166 mg/kg; for Pain sensitivity, percent change of vehicle / Paw edema, percent change of vehicle: 100 mg/kg oral 1 hr after carrageenan, female Lewis rats. Format: in vivo. On the procedure: Local inflammation was induced by intraplantar injection of carrageenan λ (Sigma, St. Louis, Mo.; 100 μl of 1% [w/v] in saline) into the plantar surface of right hind paw of sedated rat (with 2.5% isoflurane) at time 0 (T=0) (Gamache et al., J Neurosurg. 65:679, 1986; Guay et al., J. Biol. Chem. 279:24866, 2004; Chou et al., Anesth. Analg. 97:1724, 2003). Rats were acclimated in a procedure room for 20-30 minutes before each measurement was taken. Allodynia was evaluated by measuring responsiveness to the tip of a Randell-Selitto paw pressure test applied perpendicular to the central plantar surface of the right hind paw. A positive response to the applied pressure, noted by sharp withdrawal of the paw, was recorded automatically by an electronic Von Frey Anesthesiometer (2390 series Electrovonfrey, IITC, Woodland Hills, Calif.) (Vivancos et al., Braz. J. Med. Biol. Res. 37:391, 2004). Mechanical allodynia was evaluated before carrageenan inoculation, and thereafter at 1 hr, 2 hr, 4 hr and 6 hr. Paw edema volume was measured with the use of Plethysmometer (IITC, Woodland Hills, Calif.; Model 520) at time 0 (before carrageenan), and then 1 hr, 2 hr, 4 hr, and 6 hr after carrageenan injection. Animals (N=5 per group) were orally gavaged with a positive control ibuprofen (Spectrum Chemical MFG, Gardena, Calif.) (100 or 200 mg/kg); test articles such as: extracts, and combinations of extracts at various doses from 100, 200, 300 to 400 mg/kg and vehicle control (propylene glycol) were given 1 hour after carrageenan inoculation unless specified otherwise.
Background: In the carrageenan paw model, swelling and tenderness develop within hours.

Setting [2] is: rabbit cartilage explants with rhIL-1α 5 ng/ml (=100).
The mark [3] stands for this setting: 100 mg/kg oral, listed as eriocitrin.
[4] abbreviates: rhIL-1α 5 ng/ml (IL-1α alone = 100).

Marks after values point to notes of the source that are not given here.

As to `COc1cc(O)c(CC=C(C)C)c(O)c1C(=O)/C=C/c1ccc(O)cc1` [Compound 13, xanthohumol], in test [1] (setting [2]), the activity at 6.25 µg/mL was found to be 77.4%, the activity at 12.5 µg/mL was 55.3%, the activity at 25 µg/mL worked out at 59.2% and the activity at 50 µg/mL was 51.2%.

Take `COc1cc(O)c(CC=C(C)C)c2c1C(=O)CC(c1ccc(O)cc1)O2` (stereo not drawn) [Compound 14, isoxanthohumol]: in test [1] (setting [2]), the activity at 6.25 µg/mL turned out to be 97.8%, the activity at 12.5 µg/mL is 73.5%, the activity at 25 µg/mL is 41.7% and the activity at 50 µg/mL amounted to 37.3%.

In the case of `CC(C)=CCC12Oc3c(c(O)cc(O)c3C3C=C(C)CC(c4ccc(O)cc4O)C3C(=O)c3ccc(O)cc3O)C(=O)C1(O)Oc1cc(O)ccc12` (stereo not drawn) [Compound 15, cathayanon A], in test [1] (setting [2]), the activity at 6.25 µg/mL stood at 101%, the activity at 12.5 µg/mL was found to be 99.1%, the activity at 25 µg/mL was determined as 81.3% and the activity at 50 µg/mL came out at 72.4%.

Regarding `C[C@@H]1O[C@@H](OC[C@H]2O[C@@H](Oc3cc(O)c4c(c3)O[C@H](c3ccc(O)c(O)c3)CC4=O)[C@H](O)[C@@H](O)[C@@H]2O)[C@H](O)[C@H](O)[C@H]1O` [Eriocitrin], in the test on Lewis rats (100 mg/kg oral), the “Pain sensitivity (Analgesia), percent change vs. vehicle, 1 hr” value is recorded as 20.4* %; the “Paw Edema (Inflammation), percent change vs. vehicle, 1 hr” value is on record as 17.2%; the “Pain sensitivity (Analgesia), percent change vs. vehicle, 3 hr” value was 36.4* %; the “Paw Edema (Inflammation), percent change vs. vehicle, 3 hr” value is 36.0* %. For the same molecule, in the test on Lewis rats (100 mg/kg oral), the “Pain sensitivity (Analgesia), percent change vs. vehicle, 5 hr” value was 25.2* % and the “Paw Edema (Inflammation), percent change vs. vehicle, 5 hr” value was 30.0* %. Moreover, in the test on Lewis rats (setting [3]), the “Pain sensitivity (Analgesia), percent change vs. vehicle, 1 hr” value stood at 20.4%; the “Pain sensitivity (Analgesia), percent change vs. vehicle, 3 hr” value worked out at 36.4%; the “Paw Edema (Inflammation), percent change vs. vehicle, 3 hr” value is reported as 36.0%; the “Pain sensitivity (Analgesia), percent change vs. vehicle, 5 hr” value amounted to 25.2%. The “Paw Edema (Inflammation), percent change vs. vehicle, 5 hr” value in the test on Lewis rats (setting [3]) was determined as 30.0%. For the same molecule, in the test on Lewis rats, the “analgesic and anti-inflammatory activity” value is “significant anti-inflammatory and analgesic activities”.

Turning to `CC(C)=CCc1c(-c2ccc(O)cc2O)oc2c(C3C=C(C)CC(c4ccc(O)cc4O)C3C(=O)c3ccc(O)cc3O)c(O)cc(O)c2c1=O` (stereo not drawn) [Kuwanon G], in test [1] (setting [4]), the activity at 25 µg/mL is 56.6%, the activity at 50 µg/mL turned out to be 48% and the activity at 100 µg/mL is 44.4%. In the test on Lewis rats (1 hr), the “Pain sensitivity, percent change of vehicle” value is on record as 33.3* % and the “Paw edema, percent change of vehicle” value was 36.5* %. In the test on Lewis rats (3 hr), the “Pain sensitivity, percent change of vehicle” value is listed as 40.5* % and the “Paw edema, percent change of vehicle” value is 37.7* %. In the test with Lewis rats (5 hr), the “Pain sensitivity, percent change of vehicle” value was 31.2* % and the “Paw edema, percent change of vehicle” value was 29.3* %.

Turning to `CC(C)=CCc1c(-c2ccc(O)cc2O)oc2c3c(cc(O)c2c1=O)OC(C)(C)C=C3` [Morusin], in test [1] (setting [4]), the activity at 25 µg/mL is 48.4%, the activity at 50 µg/mL came to 49.9% and the activity at 100 µg/mL came out at 33.6%. The “protective effect on rhIL-1α-mediated PG degradation / GAG release” value in test [1] is on record as “strong inhibitory effect”. In addition, in the test with Lewis rats (1 hr), the “Pain sensitivity, percent change of vehicle” value is on record as 33.3* % and the “Paw edema, percent change of vehicle” value was 37.3* %. Also, in the test on Lewis rats (3 hr), the “Pain sensitivity, percent change of vehicle” value is reported as 38.5* % and the “Paw edema, percent change of vehicle” value was 40.0* %. Also, in the test with Lewis rats (5 hr), the “Pain sensitivity, percent change of vehicle” value is 30.2* % and the “Paw edema, percent change of vehicle” value is listed as 38.0* %.

With `OC[C@H]1O[C@@H](Oc2cc(O)cc(/C=C/c3ccc(O[C@@H]4O[C@H](CO)[C@@H](O)[C@H](O)[C@H]4O)cc3O)c2)[C@H](O)[C@@H](O)[C@@H]1O` [Mulberoside A, mulberroside A], in test [1] (setting [4]), the activity at 25 µg/mL is 73.1%, the activity at 50 µg/mL came to 75.8% and the activity at 100 µg/mL was found to be 70.5%. Moreover, the “protective effect on rhIL-1α-mediated PG degradation / GAG release” value in test [1] is reported as “strong inhibitory effect”. Moreover, in the test on Lewis rats (1 hr), the “Pain sensitivity, percent change of vehicle” value is listed as 54.2* % and the “Paw edema, percent change of vehicle” value is 48.4* %. Besides, in the test on Lewis rats (3 hr), the “Pain sensitivity, percent change of vehicle” value is 52.2* % and the “Paw edema, percent change of vehicle” value is 50.6* %. In the test with Lewis rats (5 hr), the “Pain sensitivity, percent change of vehicle” value is 35.5* % and the “Paw edema, percent change of vehicle” value was 37.3* %.

As to `Oc1cc(O)cc(/C=C/c2ccc(O)cc2O)c1` [Oxyresveratrol], the activity at 25 µg/mL in test [1] (setting [4]) is 59.8%. The “protective effect on rhIL-1α-mediated PG degradation / GAG release” value in test [1] is “strong inhibitory effect”. Also, the “Pain sensitivity, percent change of vehicle” value with Lewis rats (1 hr) is reported as 53.3* %; in the test on Lewis rats (3 hr), 54.8* %; in the test with Lewis rats (5 hr), 38.5* %. Moreover, the “Paw edema, percent change of vehicle” value in the test with Lewis rats (1 hr) is on record as 44.7* %; with Lewis rats (3 hr), 54.5* %; in the test on Lewis rats (5 hr), 38.3* %.

As for `O=C(/C=C/c1ccc(O)c(O)c1)O[C@H](Cc1ccc(O)c(O)c1)C(=O)O` [RA, Rosmarinic acid], in the test on Lewis rats (200 mg/kg oral), the “Pain sensitivity (Analgesia), percent change vs. vehicle, 1 hr” value was determined as 38.9%; the “Paw Edema (Inflammation), percent change vs. vehicle, 1 hr” value is 29.9%; the “Pain sensitivity (Analgesia), percent change vs. vehicle, 3 hr” value was 45.0%; the “Paw Edema (Inflammation), percent change vs. vehicle, 3 hr” value worked out at 35.7%. Also, in the test on Lewis rats (200 mg/kg oral), the “Pain sensitivity (Analgesia), percent change vs. vehicle, 5 hr” value is listed as 30.6% and the “Paw Edema (Inflammation), percent change vs. vehicle, 5 hr” value came to 34.6%. Moreover, the “analgesic and anti-inflammatory activity” value in the test with Lewis rats is “significant anti-inflammatory and analgesic activities”.

For the molecule `CC1(C)C=Cc2c(ccc3c2OC[C@@H](c2ccc(O)cc2O)C3)O1` [glabridin], in test [1] (setting [2]), the activity at 6.25 µg/mL turned out to be 66.1%, the activity at 12.5 µg/mL turned out to be 47.9%, the activity at 25 µg/mL turned out to be 47.5% and the activity at 50 µg/mL turned out to be 46.3%.
